In brackets after ≈: the same amount, converted by molar mass.
Assays:
MCF7 [1] = assay: cells; assay type: functional, cell-based; conditions: Homo sapiens, MCF7, 96 h
HCT-116 = assay: Anticancer activity against human HCT-116 cells assessed as reduction in cell viability incubated for 96 hrs by MTT assay; assay type: functional, cell-based; conditions: HCT-116, 96 h
HeLa = assay: Anticancer activity against human HeLa cells assessed as reduction in cell viability incubated for 48 hrs by MTT assay; assay type: functional, cell-based
MCF7 [2] = assay: cells; conditions: Homo sapiens, MCF7, 48 h
Staphylococcus aureus [3] = assay: Antibacterial activity against Staphylococcus aureus NCIM 2654 assessed as diameter of inhibition zone incubated for 24 hrs by agar well diffusion method; assay type: functional
[4] = Antioxidant activity assessed as DPPH radical scavenging activity at 12 ug incubated for 30 mins by spectrophotometric analysis; assay type: functional; conditions: dose 12.0 µg
[5] = Antioxidant activity assessed as NO radical scavenging activity; assay type: functional
Bacillus subtilis = assay: Antibacterial activity against Bacillus subtilis assessed as diameter of inhibition zone; assay type: functional
Salmonella typhimurium = assay: Antibacterial activity against Salmonella typhimurium assessed as diameter of inhibition zone; assay type: functional, Salmonella enterica subsp. enterica serovar Typhimurium
Urease = Urease (Canavalia ensiformis, UniProt P07374); assay: Inhibition of jack bean urease by phenol red method
Homo sapiens = organism: Homo sapiens; assay: Anticoagulant activity in human plasma assessed as activated partial thromboplastin time at 1000 ug/ml incubated for 4 mins; assay type: functional; conditions: dose 1000 µg/ml
Bacillus cereus = assay: Antimicrobial activity against Bacillus cereus ATCC14579 assessed as diameter of inhibition zone at 20 mg/ml incubated for 24 hrs by disk diffusion method; assay type: functional; conditions: read-out: DIZ
Staphylococcus aureus [6] = assay: Antimicrobial activity against Staphylococcus aureus NCTC7447 assessed as diameter of inhibition zone at 20 mg/ml incubated for 24 hrs by disk diffusion method; assay type: functional; conditions: read-out: DIZ
Klebsiella pneumoniae [7] = assay: Antimicrobial activity against Klebsiella pneumoniae UC57 assessed as diameter of inhibition zone at 20 mg/ml incubated for 24 hrs by disk diffusion method; assay type: functional; conditions: read-out: DIZ
Pseudomonas aeruginosa [8] = assay: Antimicrobial activity against Pseudomonas aeruginosa ATCC 27853 assessed as diameter of inhibition zone at 20 mg/ml incubated for 24 hrs by disk diffusion method; assay type: functional; conditions: read-out: DIZ
Escherichia coli [9] = assay: Antimicrobial activity against Escherichia coli ATCC 14169 assessed as diameter of inhibition zone at 20 mg/ml incubated for 24 hrs by disk diffusion method; assay type: functional; conditions: read-out: DIZ
Staphylococcus aureus [10] = assay: Antibacterial activity against Staphylococcus aureus assessed as diameter of inhibition zone; assay type: functional
Escherichia coli [11] = assay: Antibacterial activity against Escherichia coli assessed as diameter of inhibition zone; assay type: functional
Aspergillus ochraceus = assay: Antifungal activity against Aspergillus ochraceus assessed as diameter of inhibition zone by disc diffusion method; assay type: functional
Penicillium chrysogenum = assay: Antifungal activity against Penicillium chrysogenum assessed as diameter of inhibition zone by disc diffusion method; assay type: functional
[12] = Antioxidant activity assessed as H2O2 radical scavenging activity; assay type: functional
Staphylococcus aureus [13] = assay: Antibacterial activity against Staphylococcus aureus assessed as bacterial growth inhibition by broth microdilution method; assay type: functional
Escherichia coli [14] = assay: Antibacterial activity against Escherichia coli assessed as bacterial growth inhibition by broth microdilution method; assay type: functional
Klebsiella pneumoniae [15] = assay: Antibacterial activity against Klebsiella pneumoniae assessed as bacterial growth inhibition by broth microdilution method; assay type: functional
Pseudomonas aeruginosa [16] = assay: Antibacterial activity against Pseudomonas aeruginosa assessed as bacterial growth inhibition by broth microdilution method; assay type: functional
Alpha-glucosidase = Alpha-glucosidase (Saccharomyces cerevisiae S288c, UniProt P53341+P38158+P07265); assay: Inhibition of Saccharomyces cerevisiae alpha-glucosidase preincubated for 5 mins followed by PNP-GLUC substrate addition and measured after 20 mins by spectroscopic analysis; assay type: protein assay
Albumin = Albumin (Bos taurus, UniProt P02769); assay: […] bovine serum albumin denaturation incubated for 23 mins by UV-Visible spectrophotometry
[17] = Inhibition of porcine pancreatic alpha-amylase preincubated for 10 mins followed by substrate starch addition and measured after 10 mins by colorimetric analysis; design: species or system Sus scrofa

Urease, sequence (P07374 whole entry): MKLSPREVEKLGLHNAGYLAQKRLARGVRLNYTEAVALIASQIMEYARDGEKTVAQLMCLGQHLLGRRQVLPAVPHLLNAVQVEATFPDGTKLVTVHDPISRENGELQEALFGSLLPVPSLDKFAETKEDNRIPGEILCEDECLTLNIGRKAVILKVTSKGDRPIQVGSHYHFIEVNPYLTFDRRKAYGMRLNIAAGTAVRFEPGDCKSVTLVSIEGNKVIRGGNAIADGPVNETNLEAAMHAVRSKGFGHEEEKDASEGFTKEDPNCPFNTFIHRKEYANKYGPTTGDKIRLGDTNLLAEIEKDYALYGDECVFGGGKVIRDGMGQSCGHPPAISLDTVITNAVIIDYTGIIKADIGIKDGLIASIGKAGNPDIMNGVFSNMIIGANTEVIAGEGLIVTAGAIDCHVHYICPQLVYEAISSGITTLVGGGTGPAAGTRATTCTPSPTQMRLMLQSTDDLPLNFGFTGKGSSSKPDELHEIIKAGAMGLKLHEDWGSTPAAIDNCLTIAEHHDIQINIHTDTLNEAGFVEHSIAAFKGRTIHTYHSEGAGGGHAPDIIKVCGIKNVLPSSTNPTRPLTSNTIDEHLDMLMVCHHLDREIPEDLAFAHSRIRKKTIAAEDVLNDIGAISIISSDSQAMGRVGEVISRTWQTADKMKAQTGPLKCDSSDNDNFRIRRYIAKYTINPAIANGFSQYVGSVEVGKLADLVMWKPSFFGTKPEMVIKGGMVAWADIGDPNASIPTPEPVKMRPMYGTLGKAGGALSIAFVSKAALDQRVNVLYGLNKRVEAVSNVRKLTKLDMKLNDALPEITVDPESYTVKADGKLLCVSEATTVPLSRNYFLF
Albumin, sequence (P02769 whole entry): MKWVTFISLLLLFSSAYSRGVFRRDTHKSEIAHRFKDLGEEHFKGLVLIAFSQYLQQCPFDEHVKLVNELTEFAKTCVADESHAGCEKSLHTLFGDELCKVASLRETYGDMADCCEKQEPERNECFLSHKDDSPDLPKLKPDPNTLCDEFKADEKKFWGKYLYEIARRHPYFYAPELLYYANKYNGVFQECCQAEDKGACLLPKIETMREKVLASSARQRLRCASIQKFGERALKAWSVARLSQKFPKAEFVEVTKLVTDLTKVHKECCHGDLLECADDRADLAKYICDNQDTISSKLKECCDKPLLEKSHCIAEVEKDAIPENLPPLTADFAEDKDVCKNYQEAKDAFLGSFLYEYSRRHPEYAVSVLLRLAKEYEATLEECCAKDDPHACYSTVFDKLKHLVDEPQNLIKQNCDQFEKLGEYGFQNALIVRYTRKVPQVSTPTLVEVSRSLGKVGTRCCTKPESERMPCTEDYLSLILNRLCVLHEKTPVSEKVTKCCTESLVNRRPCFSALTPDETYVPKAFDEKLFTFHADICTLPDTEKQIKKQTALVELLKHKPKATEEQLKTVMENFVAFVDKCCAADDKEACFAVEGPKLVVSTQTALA

O=c1[nH]c2c(c(=O)[nH]1)C(c1cccs1)c1[nH]c(=S)n(-c3ccccc3)c(=O)c1O2 (stereo unspecified)
IC50 (MCF7 [1]): 1.28 µM
IC50 (HCT-116): 2760 nM

O=C1Nc2c(c(=O)oc3ccccc23)C(c2ccccc2)N1 (stereo unspecified)
IC50 (HeLa): 46 µM
IC50 (MCF7 [2]): 33 µM

Nc1ncnc2c1Oc1[nH]c(=O)[nH]c(=O)c1C2c1cccs1 (stereo unspecified)
IC50 (MCF7 [1]): 0.87 µM
IC50 (HCT-116): 7250 nM

Cc1n[nH]c2c1C(/C=C/c1ccccc1)c1c([nH]c(=O)[nH]c1=O)O2 (stereo unspecified)
diameter of the inhibition zone (DIZ) (Staphylococcus aureus [3]): 16 mm
Activity [4]: 90.3%

O=C1Nc2c(c(=O)oc3ccccc23)C(c2ccccc2O)N1 (stereo unspecified)
IC50 (HeLa): 38 µM
IC50 (MCF7 [2]): 38 µM

Nc1ncnc2c1C(c1cc(Cl)ccc1O)c1ccc(O)cc1O2 (stereo unspecified)
IC50 [5]: 50.32 µg/mL (≈ 147 µM)

Cc1ccc(C2C(C#N)=C(N)Oc3[nH]c(=O)[nH]c(=O)c32)cc1 (stereo unspecified)
diameter of the inhibition zone (DIZ) (Bacillus subtilis): 10 mm
diameter of the inhibition zone (DIZ) (Salmonella typhimurium): 8 mm
IC50 (Urease): 71.9 µM

COc1ccc2c(-c3nc4c5c(ncn4n3)OC3=C(C(=O)CC(C)(C)C3)C5c3ccccc3)cc(=O)oc2c1 (stereo unspecified)
Time (Homo sapiens): 55.1 s

Cc1cccc(-n2cnc3c(c2=N)C(c2ccccc2)C2=C(CC(C)(C)CC2=O)O3)c1 (stereo unspecified)
Time (Homo sapiens): 53.7 s

Cc1n[nH]c2c1C(c1ccccc1O)c1c([nH]c(=O)[nH]c1=O)O2 (stereo unspecified)
diameter of the inhibition zone (DIZ) (Staphylococcus aureus [3]): 14 mm

N#CC1=C(N)Oc2cc(O)ccc2C1c1ccco1 (stereo unspecified)
IC50 [5]: 50.32 µg/mL (≈ 198 µM)

N#CC1=C(N)Oc2[nH]c(=O)[nH]c(=O)c2C1c1cccc([N+](=O)[O-])c1 (stereo unspecified)
zone of inhibition at 20000 µg/mL (Bacillus cereus): 14 mm
zone of inhibition at 20000 µg/mL (Staphylococcus aureus [6]): 7 mm
zone of inhibition at 20000 µg/mL (Klebsiella pneumoniae [7]): 6 mm
zone of inhibition at 20000 µg/mL (Pseudomonas aeruginosa [8]): 11 mm
zone of inhibition at 20000 µg/mL (Escherichia coli [9]): 11 mm
diameter of the inhibition zone (DIZ) (Staphylococcus aureus [10]): 14 mm
diameter of the inhibition zone (DIZ) (Bacillus subtilis): 12 mm
diameter of the inhibition zone (DIZ) (Escherichia coli [11]): 10 mm
diameter of the inhibition zone (DIZ) (Salmonella typhimurium): 14 mm
IC50 (Urease): 98.9 µM

COc1ccc(-n2cnc3c(c2=N)C(c2ccccc2)C2=C(CC(C)(C)CC2=O)O3)cc1 (stereo unspecified)
Time (Homo sapiens): 57 s

Brc1ccc2c3c(ccc2c1)Oc1ncn2nc(-c4ccccc4)nc2c1C3
diameter of the inhibition zone (DIZ) (Aspergillus ochraceus): 17 mm
diameter of the inhibition zone (DIZ) (Penicillium chrysogenum): 13 mm

Cc1n[nH]c2c1C(c1ccncc1)c1c([nH]c(=O)[nH]c1=O)O2 (stereo unspecified)
Activity [4]: 59%

COc1cc(C2C(C#N)=C(N)Oc3cc(O)ccc32)ccc1O (stereo unspecified)
IC50 [12]: 53.54 µg/mL (≈ 173 µM)
IC50 [5]: 50.32 µg/mL (≈ 162 µM)

O=C1Nc2c(c(=O)oc3ccccc23)C(c2ccc(Cl)cc2)N1 (stereo unspecified)
IC50 (HeLa): 46 µM
IC50 (MCF7 [2]): 33 µM

CC1(C)CC(=O)C2=C(C1)Oc1ncn(-c3cccc(Cl)c3)c(=N)c1C2c1ccccc1 (stereo unspecified)
Time (Homo sapiens): 54.8 s

CONC1=C(C#N)Oc2[nH]c(=O)[nH]c(=O)c2C1c1cccs1 (stereo unspecified)
IC50 (MCF7 [1]): 3.12 µM
IC50 (HCT-116): 6380 nM

COc1ccc(C2c3c(N)ncnc3Oc3ccc4cc(Br)ccc4c32)cc1 (stereo unspecified)
diameter of the inhibition zone (DIZ) (Aspergillus ochraceus): 17 mm
diameter of the inhibition zone (DIZ) (Penicillium chrysogenum): 13 mm

CCO/C=N/C1=C(C#N)C(c2ccccc2OC)c2c(n(C)c(=O)n(C)c2=O)O1 (stereo unspecified)
MIC (Staphylococcus aureus [13]): 6.25 µg/mL (≈ 15.8 µM)
MIC (Escherichia coli [14]): 6.25 µg/mL (≈ 15.8 µM)
MIC (Klebsiella pneumoniae [15]): 6.25 µg/mL (≈ 15.8 µM)
MIC (Pseudomonas aeruginosa [16]): 6.25 µg/mL (≈ 15.8 µM)

Cc1nc2c3c(ncn2n1)OC1=C(C(=O)CC(C)(C)C1)C3c1ccccc1 (stereo unspecified)
Time (Homo sapiens): 60.1 s

Cc1nc(O)c2c(n1)Oc1[nH]c(=O)[nH]c(=O)c1C2c1cccs1 (stereo unspecified)
IC50 (MCF7 [1]): 4.48 µM
IC50 (HCT-116): 2760 nM

O=C(C1=C(c2ccccc2O)Oc2[nH]c(=S)[nH]c(=O)c2C1c1ccc(O)cc1)N1CCCCC1 (stereo unspecified)
IC50 (Alpha-glucosidase): 3.553 mM
IC50 (Albumin): 19.7 µM
IC50 [17]: 27.1 µM

CC1(C)CC(=O)C2=C(C1)Oc1ncn3nc(CC#N)nc3c1C2c1ccccc1 (stereo unspecified)
Time (Homo sapiens): 63.4 s

CCO/C=N/C1=C(C#N)C(c2ccccc2Cl)c2c(n(C)c(=O)n(C)c2=O)O1 (stereo unspecified)
MIC (Staphylococcus aureus [13]): 6.25 µg/mL (≈ 15.6 µM)
MIC (Escherichia coli [14]): 6.25 µg/mL (≈ 15.6 µM)
MIC (Klebsiella pneumoniae [15]): 6.25 µg/mL (≈ 15.6 µM)
MIC (Pseudomonas aeruginosa [16]): 6.25 µg/mL (≈ 15.6 µM)

CN1C(=O)C2C(c3ccccc3)C(C#N)=C(N)OC2N(C)C1=O (stereo unspecified)
IC50 (Urease): 98.8 µM

O=C1Nc2c(c(=O)oc3ccccc23)C(c2ccc(Br)cc2)N1 (stereo unspecified)
IC50 (HeLa): 59 µM
IC50 (MCF7 [2]): 38 µM

Nc1nn(-c2cc([N+](=O)[O-])ccc2[N+](=O)[O-])c2c1Oc1[nH]c(=O)[nH]c(=O)c1C2c1cccs1 (stereo unspecified)
IC50 (MCF7 [1]): 3.17 µM
IC50 (HCT-116): 2800 nM

CCOc1ccc(C2C(C#N)=C(N)Oc3cc(O)ccc32)cc1 (stereo unspecified)
IC50 [12]: 53.54 µg/mL (≈ 174 µM)

CCc1ccc(-n2cnc3c(c2=N)C(c2ccccc2)C2=C(CC(C)(C)CC2=O)O3)cc1 (stereo unspecified)
Time (Homo sapiens): 61.8 s

Cn1c2c(c(=O)n(C)c1=O)C(c1ccc(O)cc1)C(C#N)=C(N)O2 (stereo unspecified)
IC50 (Urease): 108 µM

O=c1[nH]c2c(c(=O)[nH]1)C(c1cccs1)c1[nH]c(=S)[nH]c(=S)c1O2 (stereo unspecified)
IC50 (MCF7 [1]): 4.95 µM
IC50 (HCT-116): 2760 nM

CC1(C)CC(=O)C2=C(C1)Oc1ncn(-c3ccccc3)c(=N)c1C2c1ccccc1 (stereo unspecified)
Time (Homo sapiens): 57.1 s

COc1ccc(C2c3c(ncn(C)c3=N)Oc3ccc4cc(Br)ccc4c32)cc1 (stereo unspecified)
diameter of the inhibition zone (DIZ) (Aspergillus ochraceus): 17 mm
diameter of the inhibition zone (DIZ) (Penicillium chrysogenum): 13 mm

N#CC1=C(N)Oc2[nH]c(=O)[nH]c(=O)c2C1c1ccc(Cl)cc1Cl (stereo unspecified)
IC50 (Urease): 19.5 µM

COc1ccc(C2NC(=O)Nc3c2c(=O)oc2ccccc32)cc1OC (stereo unspecified)
IC50 (HeLa): 38 µM
IC50 (MCF7 [2]): 38 µM

Nc1ncnc2c1C(c1ccc(Br)cc1)c1ccc(O)cc1O2 (stereo unspecified)
IC50 [5]: 50.32 µg/mL (≈ 136 µM)

CC1(C)CC(=O)C2=C(C1)Oc1ncn(-c3cccc4ccccc34)c(=N)c1C2c1ccccc1 (stereo unspecified)
Time (Homo sapiens): 63.2 s

CC1(C)CC(=O)C2=C(C1)Oc1ncn3ncnc3c1C2c1ccccc1 (stereo unspecified)
Time (Homo sapiens): 59.4 s

COc1ccc(C2c3c(nc[nH]c3=O)Oc3ccc4cc(Br)ccc4c32)cc1 (stereo unspecified)
diameter of the inhibition zone (DIZ) (Aspergillus ochraceus): 17 mm
diameter of the inhibition zone (DIZ) (Penicillium chrysogenum): 13 mm

Nc1nc(S)nc2c1Oc1[nH]c(=O)[nH]c(=O)c1C2c1cccs1 (stereo unspecified)
IC50 (MCF7 [1]): 2.65 µM
IC50 (HCT-116): 2760 nM

Brc1ccc2c3c(ccc2c1)Oc1ncn2ncnc2c1C3
diameter of the inhibition zone (DIZ) (Aspergillus ochraceus): 17 mm
diameter of the inhibition zone (DIZ) (Penicillium chrysogenum): 13 mm

CCO/C=N/C1=C(C#N)C(c2ccc(OC)cc2)c2c(n(C)c(=O)n(C)c2=O)O1 (stereo unspecified)
MIC (Staphylococcus aureus [13]): 6.25 µg/mL (≈ 15.8 µM)
MIC (Escherichia coli [14]): 6.25 µg/mL (≈ 15.8 µM)
MIC (Klebsiella pneumoniae [15]): 6.25 µg/mL (≈ 15.8 µM)
MIC (Pseudomonas aeruginosa [16]): 6.25 µg/mL (≈ 15.8 µM)

COc1ccc(C2C(C(=O)N3CCCCC3)=C(c3ccccc3O)Oc3[nH]c(=S)[nH]c(=O)c32)cc1 (stereo unspecified)
IC50 (Alpha-glucosidase): 5.223 mM
IC50 (Albumin): 18.1 µM
IC50 [17]: 16.1 µM

O=C1Nc2c(c(=O)oc3ccccc23)C(c2ccc(O)cc2)N1 (stereo unspecified)
IC50 (HeLa): 38 µM
IC50 (MCF7 [2]): 38 µM

Cc1n[nH]c2c1C(c1cccc([N+](=O)[O-])c1)c1c([nH]c(=O)[nH]c1=O)O2 (stereo unspecified)
diameter of the inhibition zone (DIZ) (Staphylococcus aureus [3]): 12 mm
Activity [4]: 90.3%

COc1ccc(C2C(C#N)=C(N)Oc3cc(O)ccc32)cc1 (stereo unspecified)
IC50 [12]: 53.54 µg/mL (≈ 182 µM)

Cc1n[nH]c2c1C(c1cc([N+](=O)[O-])ccc1O)c1c([nH]c(=O)[nH]c1=O)O2 (stereo unspecified)
Activity [4]: 89.1%

O=C1Nc2c(c(=O)oc3ccccc23)C(c2cccc(O)c2)N1 (stereo unspecified)
IC50 (HeLa): 90 µM
IC50 (MCF7 [2]): 38 µM

Reference: ChEMBL document CHEMBL5241112, “Insights into the recent progress in the medicinal chemistry of pyranopyrimidine analogs” (RSC Med Chem, 2022)
